The experiment deals with T1, hB2 receptor (Homo sapiens, UniProt P30411).
T1 construct: host or cells: CHO-K1
T1 sequence (P30411 1-391): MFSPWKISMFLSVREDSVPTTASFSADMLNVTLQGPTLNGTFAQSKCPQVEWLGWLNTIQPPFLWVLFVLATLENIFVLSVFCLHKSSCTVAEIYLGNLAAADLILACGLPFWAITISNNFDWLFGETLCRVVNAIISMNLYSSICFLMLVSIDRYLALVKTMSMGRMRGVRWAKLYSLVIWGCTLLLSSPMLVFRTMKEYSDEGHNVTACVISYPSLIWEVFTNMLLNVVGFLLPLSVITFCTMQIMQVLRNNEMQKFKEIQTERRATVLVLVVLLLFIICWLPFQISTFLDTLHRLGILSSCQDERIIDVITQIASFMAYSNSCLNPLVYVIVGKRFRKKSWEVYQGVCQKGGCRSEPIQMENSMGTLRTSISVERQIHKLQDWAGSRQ
Description: In vitro Assay of hB2 Receptor Function using Calcium Flux. The settings on record: recombinant CHO cells, antagonist IC50 against agonist at EC80. It counts as cell-based. The protocol: In vitro Assay of hB2 Receptor Function using Calcium Flux The intracellular calcium flux induced by hB2 receptor activation was analyzed using an hB2 recombinant cell line (CHO-K1) purchased from PerkinElmer (Catalog Number: RBHB2C000EA) on a fluorometric imaging plate reader (FLIPR). […] Culture medium was changed every other day. 24 h prior to the FLIPR assay, the hB2/CHO cells were washed once with PBS (Invitrogen) and 10 mL of Versene (1:5000, Invitrogen, Cat# 15040-066) was added to each flask. After 5 min incubation at 37° C., Versene was removed and cells were detached from the flask and resuspended in culture medium. Cells were counted and 25,000 cells/well were plated in 96-well black-sided clear bottom assay plates (Costar #3904). Cells were incubated in a 37° C. CO2 incubator overnight. The media was aspirated from the cells and replaced with 65 μL of dye-loading buffer. The loading buffer was prepared by diluting a stock solution of 0.5 mM Fluo-4 AM (Molecular Probes, dissolved in DMSO containing 10% [w/v] pluronic acid) to a concentration of 1 μM in Clear Dulbecco's Modified Eagle Medium (DMEM) containing 0.1% BSA, 20 mM HEPES, and 2.5 mM probenecid. The cells were dye-loaded for 1 h at RT. The excess dye was removed by washing the cells 2× with assay buffer. The assay buffer consists of Hank's Balanced Salt Solution (HBSS) containing 20 mM HEPES, 0.1% BSA, and 2.5 mM probenecid. After the wash cycles, a volume of 100 μL was left in each well, and the plate was ready to be assayed in the FLIPR System. […] The cell plate and the compound plates were loaded onto the FLIPR and during the assay, fluorescence readings are taken simultaneously from all 96 wells of the cell plate. Ten 1-second readings were taken to establish a stable baseline for each well, then 25 μL from the B1 antagonist plate was rapidly (50 μL/sec.) added. The fluorescence signal was measured in 1-second (1 min) followed by 6-second (2 min) intervals for a total of 3 min to determine if there is any agonist activity with the compounds.
With `Cc1ccc(S(=O)(=O)N2C=CNC(=O)[C@H]2CC(=O)N[C@H]2CC[C@@H](NC(C)C)CC2)cc1` [T-1-35, N-(cis-4-((1-methylethyl)amino)cyclohexyl)-2-((2R)-1-((4-methylphenyl)sulfonyl)-3-oxo-1,2,3,4-tetrahydro-2-pyrazinyl)acetamide], the IC50 worked out at 420 nM. As to `Cc1ccc(S(=O)(=O)N2C=CNC(=O)[C@H]2CC(=O)NC2CCCCC2C2CCCCC2)cc1` (stereo partly drawn) [T-1-40, N-1,1′-bi(cyclohexyl)-2-yl-2-((2R)-1-((4-methylphenyl)sulfonyl)-3-oxo-1,2,3,4-tetrahydro-2-pyrazinyl)acetamide], the concentration for half-maximal inhibition (IC50) came out at 200 nM. For `Cc1ccc(S(=O)(=O)N2C=CNC(=O)[C@H]2CC(=O)NC2CCC(N3CCCC(F)C3)CC2(C)C)cc1` (stereo partly drawn) [T-1-41, N-(4-(3-fluoro-1-piperidinyl)-2,2-dimethylcyclohexyl)-2-((2R)-1-((4-methyl-phenyl)sulfonyl)-3-oxo-1,2,3,4-tetrahydro-2-pyrazinyl)acetamide], the half-maximal inhibitory concentration (IC50) turned out to be 2 nM.

Regarding `Cc1ccc(S(=O)(=O)N2C=CNC(=O)[C@H]2CC(=O)NC2CCN(CCc3ccccc3)CC2)cc1` [T-1-58, N-(1-(2-phenethyl)-4-piperidinyl)-2-((2R)-1-((4-methylphenyl)sulfonyl)-3-oxo-1,2,3,4-tetrahydro-2-pyrazinyl)acetamide], the half-maximal inhibitory concentration (IC50) was 20 nM. Turning to `Cc1ccc(S(=O)(=O)N2C=CNC(=O)[C@H]2CC(=O)NC2CC(C)(C)N(C)C(C)(C)C2)cc1` [T-1-77, 2-((2R)-1-((4-methylphenyl)sulfonyl)-3-oxo-1,2,3,4-tetrahydro-2-pyrazinyl)-N-(1,2,2,6,6-pentamethyl-4-piperidinyl)acetamide], the IC50 was determined as 20 nM. With `COCCN1CC[C@@H](NC(=O)C[C@@H]2C(=O)NC=CN2S(=O)(=O)c2ccc(C)cc2)C(C)(C)C1` [T-1-120, N-((4R)-3,3-dimethyl-1-(2-(methyloxy)ethyl)-4-piperidinyl)-2-((2R)-1-((4-methylphenyl)sulfonyl)-3-oxo-1,2,3,4-tetrahydro-2-pyrazinyl)acetamide], the IC50 was found to be 1 nM.

Consider `Cc1ccc(S(=O)(=O)N2C=CNC(=O)[C@H]2CC(=O)N(C)C2CCN(C)CC2)cc1` [T-2-1, 2-((2R)-1-((4-methylphenyl)sulfonyl)-3-oxo-1,2,3,4-tetrahydro-2-pyrazinyl)-N-methyl-N-(1-methyl-4-piperidinyl)acetamide], for which the half-inhibitory concentration (IC50) came out at 3 nM. `COc1ccc(C2CN(C(=O)C[C@@H]3C(=O)NC=CN3S(=O)(=O)c3ccc(C)cc3)CCS2)cc1` (stereo partly drawn) [T-3-2, (3R)-3-(2-(2-(4-(methyloxy)phenyl)-4-thiomorpholinyl)-2-oxoethyl)-4-((4-methyl-phenyl)sulfonyl)-3,4-dihydro-2(1H)-pyrazinone]: the half-maximal inhibitory concentration (IC50) stood at 130 nM. As for `Cc1ccc(S(=O)(=O)N2C=CNC(=O)[C@H]2CC(=O)N2CCCC2c2ccc(Cl)cc2)cc1` (stereo partly drawn) [T-3-3, (3R)-3-(2-(2-(4-chlorophenyl)-1-pyrrolidinyl)-2-oxoethyl)-4-((4-methylphenyl)-sulfonyl)-3,4-dihydro-2(1H)-pyrazinone], the IC50 was determined as 1000 nM. Regarding `Cc1cc(S(=O)(=O)N2C=CNC(=O)[C@H]2CC(=O)N2CCC(N3CCCCC3)CC2)c(C)cc1Cl` [T-3-8, (3R)-3-(2-(1,4′-bipiperidin-1′-yl)-2-oxoethyl)-4-((4-chloro-2,5-dimethylphenyl)-sulfonyl)-3,4-dihydro-2(1H)-pyrazinone], the half-maximal inhibitory concentration (IC50) was determined as 270 nM. Turning to `Cc1ccc(S(=O)(=O)N2C=CNC(=O)[C@H]2CC(=O)N2C[C@@H](N)[C@H](c3ccccc3)C2)cc1` [T-3-10, (3R)-3-(2-((3S)-3-(amino)-4(R)-4-phenyl-1-pyrrolidinyl)-2-oxoethyl)-4-((4-methylphenyl)sulfonyl)-3,4-dihydro-2(1H)-pyrazinone], the IC50 was 270 nM.

On to `Cc1cc(S(=O)(=O)N2C=CNC(=O)[C@H]2CC(=O)N2CCC(CO)CC2)c(C)cc1Cl` [T-3-15, (3R)-4-((4-chloro-2,5-dimethylphenyl)sulfonyl)-3-(2-(4-(hydroxymethyl)-1-piperidinyl)-2-oxoethyl)-3,4-dihydro-2(1H)-pyrazinone], for which the IC50 came out at 940 nM. In the case of `Cc1cc(S(=O)(=O)N2C=CNC(=O)[C@H]2CC(=O)N2CCC(CN3CCCC3)CC2)c(C)cc1Cl` [T-3-18, (3R)-4-((4-chloro-2,5-dimethylphenyl)sulfonyl)-3-(2-oxo-2-(4-(1-pyrrolidinylmethyl)-1-piperidinyl)ethyl)-3,4-dihydro-2(1H)-pyrazinone] it was 160 nM; in that of `Cc1cc(S(=O)(=O)N2C=CNC(=O)[C@H]2CC(=O)N2CCC3(CCNC3)C2)c(C)cc1Cl` (stereo partly drawn) [T-3-26, (3R)-4-((4-chloro-2,5-dimethylphenyl)sulfonyl)-3-(2-(2,7-diazaspiro[4.4]non-2-yl)-2-oxoethyl)-3,4-dihydro-2(1H)-pyrazinone], 15 nM; in that of `Cc1cc(S(=O)(=O)N2C=CNC(=O)[C@H]2CC(=O)N2CCC3(CCN(C4CC4)C3)C2)c(C)cc1Cl` (stereo partly drawn) [T-3-38, (3R)-4-((4-chloro-2,5-dimethylphenyl)sulfonyl)-3-(2-(7-cyclopropyl-2,7-diazaspiro[4.4]non-2-yl)-2-oxoethyl)-3,4-dihydro-2(1H)-pyrazinone], 5.1 nM. In the case of `Cc1ccc(S(=O)(=O)N2C=CNC(=O)[C@H]2CC(=O)N2CCC(NC(=O)c3ccccc3)CC2)cc1` [T-3-40, N-(1-(2-((2R)-1-((4-methylphenyl)sulfonyl)-3-oxo-1,2,3,4-tetrahydro-2-pyrazinyl)acetyl)-4-piperidinyl)benzamide] it was over 4000 nM.

For the compound `Cc1ccc(S(=O)(=O)N2C=CNC(=O)[C@H]2CC(=O)N2CCCC2c2ccccc2)cc1` (stereo partly drawn) [T-3-43, (3R)-4-((4-methylphenyl)sulfonyl)-3-(2-oxo-2-(2RS-phenyl-1-pyrrolidinyl)ethyl)-3,4-dihydro-2(1H)-pyrazinone], the IC50 amounted to 2600 nM. As for `COc1ccc(CC2CCCN2C(=O)C[C@@H]2C(=O)NC=CN2S(=O)(=O)c2ccc(C)cc2)cc1` (stereo partly drawn) [T-3-47, (3R)-3-(2-(2-RS-((4-(methyloxy)phenyl)methyl)-1-pyrrolidinyl)-2-oxoethyl)-4-((4-methylphenyl)sulfonyl)-3,4-dihydro-2(1H)-pyrazinone], the IC50 amounted to 390 nM.

Take `Cc1ccc(C2CCN(C(=O)C[C@@H]3C(=O)NC=CN3S(=O)(=O)c3ccc(C)cc3)CC2)cc1` [T-3-48, (3R)-3-(2-(4-(4-methylphenyl)-1-piperidinyl)-2-oxoethyl)-4-((4-methylphenyl)-sulfonyl)-3,4-dihydro-2(1H)-pyrazinone]: the IC50 was found to be 1600 nM. `Cc1ccc(S(=O)(=O)N2C=CNC(=O)[C@H]2CC(=O)N2CCCC2c2cc3ccccc3[nH]2)cc1` (stereo partly drawn) [T-3-50, (3R)-3-(2-(2-RS-(1H-indol-2-yl)-1-pyrrolidinyl)-2-oxoethyl)-4-((4-methylphenyl)sulfonyl)-3,4-dihydro-2(1H)-pyrazinone]: the half-inhibitory concentration (IC50) was over 4000 nM. On to “N-((1R)-2,2-dimethyl-4-oxocyclohexyl)-2-((2R)-1-((4-methylphenyl)sulfonyl)-3-oxo-1,2,3,4-tetrahydro-2-pyrazinyl)acetamide; and N-((1S)-2,2-dimethyl-4-oxocyclohexyl)-2-((2R)-1-((4-methylphenyl)sulfonyl)-3-oxo-1,2,3,4-tetrahydro-2-pyrazinyl)acetamide [T-1-37]”, for which the IC50 was determined as 19 nM.

For the origin of these results see patent US20090227601A1, “Bradykinin 1 Receptor Antagonists” (Amgen Inc., priority 2005, published 2009).
